What follows are molecules tested on human JAK1 (a.a. 837-1142) (assay: In vitro JAK kinase assay (HTRF), JAK1). Settings: ratio of IC50s, 1 mM ATP.
Type: biochemical
Experimental: Compounds herein were tested for inhibitory activity of JAK targets according to the following in vitro assay described in Park et al., Analytical Biochemistry 1999, 269, 94-104. The catalytic domains of human JAK1 (a.a. 837-1142), JAK2 (a.a. 828-1132) and JAK3 (a.a. 781-1124) were expressed using baculovirus in insect cells and purified. The catalytic activity of JAK1, JAK2 or JAK3 was assayed by measuring the phosphorylation of a biotinylated peptide. The phosphorylated peptide was detected by homogenous time resolved fluorescence (HTRF). IC50s of compounds were measured for each kinase in the 40 μL reactions that contain the enzyme, ATP and 500 nM peptide in 50 mM Tris (pH 7.8) buffer with 100 mM NaCl, 5 mM DTT, and 0.1 mg/mL (0.01%) BSA. For the 1 mM IC50 measurements, ATP concentration in the reactions was 1 mM. Reactions were carried out at room temperature for 1 hour and then stopped with 20 μL 45 mM EDTA, 300 nM SA-APC, 6 nM Eu-Py20 in assay buffer (Perkin Elmer, Boston, Mass.). Binding to the Europium labeled antibody took place for 40 minutes and HTRF signal was measured on a PHERA star plate reader (BMG, Cary, N.C.). The Example compounds were each tested in the Example A assay (see Table 1 for data for the compounds of the examples as tested by the assay of Example A at 1 mM ATP).

Compound | JAK2/JAK1
C[C@@H](O)c1cc2cnc3ccsc3c2n1[C@H]1CC[C@H](CC#N)CC1 [Example 23, (trans-4-{7-[(1R)-1-Hydroxyethyl]-8H-pyrrolo[2,3-d]thieno[3,2-b]pyridin-8-yl}cyclohexyl)acetonitrile] | >10
N#CC[C@H]1CC[C@H](n2/c(=N/C#N)[nH]c3cnc4ccsc4c32)CC1.O=C(O)C(F)(F)F [Example 25, {(2E)-1-[trans-4-(Cyanomethyl)cyclohexyl]-1,3-dihydro-2H-imidazo[4,5-d]thieno[3,2-b]pyridin-2-ylidene}cyanamide Trifluoroacetate] | >6
N#CC[C@H]1CC[C@H](n2c(C3CC3)nc3cnc4ccsc4c32)CC1 [Example 26, [trans-4-(2-Cyclopropyl-1H-imidazo[4,5-d]thieno[3,2-b]pyridin-1-yl)cyclohexyl]acetonitrile] | >10
CC(C)c1nc2cnc3ccsc3c2n1[C@H]1CC[C@H](CC#N)CC1 [Example 27, [trans-4-(2-Isopropyl-1H-imidazo[4,5-d]thieno[3,2-b]pyridin-1-yl)cyclohexyl]acetonitrile] | >10
N#CC[C@H]1CC[C@H](n2c(C3CNC3)nc3cnc4ccsc4c32)CC1 [Example 28, [trans-4-(2-Azetidin-3-yl-1H-imidazo[4,5-d]thieno[3,2-b]pyridin-1-yl)cyclohexyl]acetonitrile] | >7
CN1CC(c2nc3cnc4ccsc4c3n2[C@H]2CC[C@H](CC#N)CC2)C1 [Example 29, {trans-4-[2-(1-Methylazetidin-3-yl)-1H-imidazo[4,5-d]thieno[3,2-b]pyridin-1-yl]cyclohexyl}acetonitrile] | >9
CCNC(=O)C[C@H]1CC[C@H](n2c([C@@H](C)O)nc3cnc4ccsc4c32)CC1 [Example 31, N-Ethyl-2-(trans-4-{2-[(1R)-1-hydroxyethyl]-1H-imidazo[4,5-d]thieno[3,2-b]pyridin-1-yl}cyclohexyl)acetamide] | >10
C[C@@H](O)c1nc2cnc3ccsc3c2n1C1CCCC(CCC#N)C1 (stereo partly drawn) [Example 32, 3-(3-{2-[(1R)-1-Hydroxyethyl]-1H-imidazo[4,5-d]thieno[3,2-b]pyridin-1-yl}cyclohexyl)propanenitrile] | >10
Cc1nc2cnc3ccsc3n2c1-c1ccc(CC#N)cc1 [Example 33, [4-(7-Methylimidazo[1,2-a]thieno[3,2-e]pyrazin-8-yl)phenyl]acetonitrile] | >7
Cc1nc2cnc3ccsc3c2n1[C@H]1CC[C@H](CC#N)OC1 [Example 38, [(2R,5S)-5-(2-Methyl-1H-imidazo[4,5-d]thieno[3,2-b]pyridin-1-yl)tetrahydro-2H-pyran-2-yl]acetonitrile] | >10
CCc1nc2cnc3ccsc3c2n1[C@H]1CC[C@H](CC#N)OC1 [Example 39, [(2R,5S)-5-(2-Ethyl-1H-imidazo[4,5-d]thieno[3,2-b]pyridin-1-yl)tetrahydro-2H-pyran-2-yl]acetonitrile] | >10
CC(C)c1nc2cnc3ccsc3c2n1[C@H]1CC[C@H](CC#N)OC1 [Example 42, [(2R,5S)-5-(2-Isopropyl-1H-imidazo[4,5-d]thieno[3,2-b]pyridin-1-yl)tetrahydro-2H-pyran-2-yl]acetonitrile] | >10
N#CC[C@H]1CC[C@H](n2c(C3CC3)nc3cnc4ccsc4c32)CO1 [Example 43, [(2R,5S)-5-(2-Cyclopropyl-1H-imidazo[4,5-d]thieno[3,2-b]pyridin-1-yl)tetrahydro-2H-pyran-2-yl]acetonitrile] | >10
C[C@@H](O)c1nc2cnc3ccsc3c2n1[C@@H]1CC[C@@H](CC#N)OC1 [Example 44, ((2S,5R)-5-{2-[(1R)-1-Hydroxyethyl]-1H-imidazo[4,5-d]thieno[3,2-b]pyridin-1-yl}tetrahydro-2H-pyran-2-yl)acetonitrile] | >10
